Data: patent US20240165140A1, “MEDICATION FOR INHIBITING DNA-PKCS” (TSINGHUA UNIVERSITY, priority 2017, published 2024)

Assays:
[1] = test system: DNA-PKcs signaling pathway; experiment: Immunoblotting of DNA-PKcs signaling pathway activation induced by chemotherapeutic agent; type: cell-based; conditions: H1299 and A549 cells; for Level of the DNA-PKcs signaling pathway (p-DNA-PKcs (S2056), p-AKT (S473), p-P53 (S15)): single agent 1 h (Etoposide 10 μM, Endostatin 10 μg/ml, NU7026 10 μM); for Activation of the DNA-PKcs signaling pathway by Etoposide (p-DNA-PKcs (S2056), p-AKT (S473)): 10 μg/ml added 1 h before Etoposide 10 μM
Description: Tumor cells (including non-small cell lung cancer H1299 and A549 cells) were divided into six treatment groups.
Tumor cells (including H1299 and A549 cells) were divided into six treatment groups.

[2] = test system: DNA-PKcs, PARP, γH2AX and Caspase-3 signaling pathways; experiment: Immunoblotting of DNA damage and apoptotic pathway, P53-deficient tumor cells; type: cell-based; conditions: H1299-NC, A549-shP53; Endostatin 10 μg/ml, Etoposide 10 μM 16 h, z-DEVD-fmk 10 μM; Endostatin and z-DEVD-fmk added 1 h before Etoposide
Description: In this example, tumor cells (H1299-NC, H1299-P53, A549-NC, A549-shP53) were divided into six treatment groups.

[3] = test system: tumor cells with normal P53 function (H1299-P53 and A549-NC); experiment: CCK8 cell activity, tumor cells with normal P53 function; type: cell-based
Protocol: (§1) First, a lentivirus kit (purchased from Shanghai Genepharma) was used to construct a P53 stably overexpressing H1299 cell line (H1299-P53) and a P53 stably knockdown A549 cell line […]. The P53 sequence targeted by the shRNA used to knock down P53 in A549 cells was 5′-[…]-3′ (SEQ ID NO: 4). Virus transfection and the construction of stable cell lines were performed according to the kit instructions. […] After treatment for 12 hours, the drug-containing medium was replaced with a normal medium and the cells were further cultured for 72 hours. Cell activity was measured according to the instructions of the CCK8 kit (Dojindo, Tokyo, Japan).
In this example, another chemical drug, Doxorubicin, was used to verify that Endostatin can enhance the sensitivity of P53-deficient tumor cells to chemotherapy. Operation process was the same as in Example 5.

H1299 mouse tumor model = experiment: Survival of H1299 tumor-bearing mice; type: in vivo; conditions: administration as in Example 12, stopped after 25 days
Protocol: (§2) Tumor-bearing nude mice were randomly divided into four groups with 6 to 8 animals for each group, and different drug treatments were performed. […] Tumor volume was measured every other day. 2 to 4 weeks after administration, the mice were sacrificed and the tumor tissue was removed for further use.
(§3) H1299 and A549 cells were cultured in a vigorous and proliferative state, and tumor collection, grouping, and administration methods were the same as in Example 12. The administration was stopped after 25 days, and the survival of the mice was recorded daily, and the survival curve of the mice was plotted.

[4] = test system: tumor cells with normal P53 function (H1299-P53, A549-NC); experiment: PI staining apoptosis by flow cytometry, tumor cells with normal P53 function; type: cell-based; conditions: Etoposide 1 μM, 16 h
Protocol: The apoptotic cells and adherent cells floating in the culture medium were collected, and the cells were suspended in 500 μl PBS containing 0.05 mg/ml propidium iodide (PI), stained for 15 min at room temperature in dark, and detected by flow cytometry (BD FACS Calibur). PI-positive cells represent apoptotic cells.

H1299-NC tumor = experiment: Subcutaneous tumor growth in nude mice, H1299-NC; type: in vivo; conditions: Day 19, compared with control group, Endostatin 20 mg/kg i.p. once a day, Etoposide 2 mg/kg i.p. once every two days
Protocol: as §2

H1299 and A549 cells = experiment: Annexin V-FITC/PI apoptosis by flow cytometry with DNA-PKcs siRNA knockdown; type: cell-based; conditions: A549 (P53 wild-type) versus H1299 (P53-deficient); 1 μM versus 10 μM, 16 h
Protocol: In this example, tumor cells (including H1299 and A549 cells) were divided into eight treatment groups. In the first four groups, cells were transfected with control siRNA, and in the last four groups, cells were transfected with siRNA that specifically knocked down DNA-PKcs. The siRNA sequence of DNA-PKcs is: forward 5′-[…]-3′ (SEQ ID NO: 5), reverse 5′-[…]-3′ (SEQ ID NO: 6). The siRNA transfection method was performed according to the instructions of the transfection reagent Lipofectamine 2000. Then, in the eight groups, the cells were treated with drugs. […] Cells were collected and operations were performed according to the instructions of Annexin V-FITC/PI Apoptosis Detection Kit. Apoptosis was detected by flow cytometry. A549 cells were P53 wild-type cells, and H1299 cells were P53-deficient cells.

A549-shP53 tumor = experiment: Subcutaneous tumor growth in nude mice, A549-shP53; type: in vivo; conditions: A549-shP53, Day 27; compared with control group; Endostatin 20 mg/kg i.p. once a day, Etoposide 2 mg/kg i.p. once every two days
Protocol: as §2

[5] = test system: PCNA and DNA-PKcs protein in H1299-NC and A549-shP53 tumor tissues; experiment: Immunofluorescence of PCNA and DNA-PKcs in tumor tissue, P53-deficient mouse tumor model; type: in vivo, nude mice; conditions: H1299-NC and A549-shP53 tumors of Example 12; quantitative immunofluorescence
Protocol: as §2
(§4) The tumor tissue removed in Example 12 was fixed and embedded, and then sectioned. PCNA (a marker molecule indicating the vigorous proliferation status of tumor cells) and DNA-PKcs protein in tumor tissues were stained by immunofluorescence technique, and were observed and imaged with a laser confocal microscope (Nikon A1). The experimental results are shown in FIG. 14A-14D, in which blue represents the nucleus of DAPI-stained cells, green represents the DNA-PKcs protein, and red represents the PCNA protein. Taking the H1299-NC tumor tissue shown in FIG. 14A as an example, the first column on the left represents DNA-PKcs single staining, and the green area represents the DNA-PKcs protein expression level. The second column on the left represents the results of DNA-PKcs (green) merged with nucleus (blue), and the overlapping part is shown in cyan. The third column on the left represents PCNA single staining, and the red area represents the PCNA protein expression level, indicating the strength of tumor cell proliferation. […]

A549-NC tumor = experiment: Subcutaneous tumor growth in nude mice, A549-NC; type: in vivo; conditions: Day 27, compared with control group, Endostatin 20 mg/kg i.p. once a day, Etoposide 2 mg/kg i.p. once every two days
Protocol: as §2

H1299-P53 tumor = experiment: Subcutaneous tumor growth in nude mice, H1299-P53; type: in vivo; conditions: H1299-P53, Day 19; compared with control group; Endostatin 20 mg/kg i.p. once a day, Etoposide 2 mg/kg i.p. once every two days
Protocol: as §2

[6] = test system: tumor cells with normal P53 function (H1299-P53, A549-NC); experiment: Cell colony formation, tumor cells with normal P53 function; type: cell-based; conditions: Etoposide 1 μM, 16 h; colonies after 14 days
Protocol: After the treatment, the cells were digested with trypsin, counted, and re-plated in a six-well plate with 1000 cells per well. The cells were cultured in a normal medium for 14 days to form cell colonies.

[7] = test system: A549 tumor-bearing mice (normal P53 function); experiment: Survival of A549 tumor-bearing mice; type: in vivo; conditions: A549, normal P53 function (FIG. 13B); compared with control group; administration as in Example 12, stopped after 25 days
Protocol: as §2, §3

A375 cells = experiment: CCK8 cell activity, melanoma A375; type: cell-based; conditions: A375 (P53 wild type); Etoposide; operation process as in Example 5
Protocol: as §1
This example used two cell lines of another tumor type (melanoma), the MDA-MB-435S (P53 mutant) and A375 (P53 wild type) cell lines, to verify the regulatory function of Endostatin on the chemotherapeutic sensitivity of other types of tumor cells with different P53 status. Operation process was the same as in Example 5.

[8] = test system: mRNA levels of BAX, NOXA, PUMA, and P21; experiment: Real-time PCR of pro-apoptotic molecules, tumor cells with normal P53 function; type: cell-based; conditions: H1299-P53, A549-NC; Etoposide 1 μM, 16 h
Protocol: After the cells were treated as described above, the total RNA of the cells was extracted, and the relative changes in mRNA levels of BAX, NOXA, PUMA, and P21 in the cells were detected by real-time PCR.

[9] = test system: PCNA and DNA-PKcs protein in H1299-P53 and A549-NC tumor tissues; experiment: Immunofluorescence of PCNA and DNA-PKcs in tumor tissue, mouse tumor model with normal P53 function; type: in vivo, nude mice; conditions: H1299-P53 and A549-NC tumors of Example 12; quantitative immunofluorescence
Protocol: as §2, §4

Question: How did the “Level of the DNA-PKcs signaling pathway (p-DNA-PKcs (S2056), p-AKT (S473), p-P53 (S15))” value ([1]; compared with control group) turn out when `O=c1cc(N2CCOCC2)oc2c1ccc1ccccc12` [NU7026, reference compound] was run?
Answer: did not affect the level of the DNA-PKcs signaling pathway

Question: How did the “DNA-PKcs, PARP, γH2AX and Caspase-3 signaling pathway levels” value [2] turn out when z-DEVD-fmk [reference compound] was run?
Answer: could reverse the synergistic effect of Endostatin and Etoposide to some extent

Question: With `COc1cccc2c1C(=O)c1c(O)c3c(c(O)c1C2=O)C[C@@](O)(C(=O)CO)C[C@@H]3O[C@H]1C[C@H](N)[C@H](O)[C@H](C)O1` [Doxorubicin, reference compound] as the molecule, how does the “Activity of tumor cells” value ([3]; Doxorubicin, operation process as in Example 5) read?
Answer: could significantly inhibit the activity of tumor cells

Question: How did the “median survival time longer than that of the control group” value (H1299 mouse tumor model) turn out when `COc1cc([C@@H]2c3cc4c(cc3[C@@H](O[C@@H]3O[C@@H]5CO[C@@H](C)O[C@H]5[C@H](O)[C@H]3O)[C@H]3COC(=O)[C@H]23)OCO4)cc(OC)c1O` [Etoposide, reference compound] was run?
Answer: 30.3%

Question: What about the “Apoptosis of tumor cells (PI-positive cells)” value [4] of the same molecule?
Answer: could significantly promote the apoptosis of tumor cells

Question: And the tumor suppression rate (H1299-NC tumor)?
Answer: 28.0%

Question: What about the “Sensitivity of cells to the chemotherapeutic agent (apoptosis)” value (H1299 and A549 cells) of the same molecule?
Answer: A549 cells were more sensitive to the chemotherapeutic agent

Question: And the “Level of the DNA-PKcs signaling pathway (p-DNA-PKcs (S2056), p-AKT (S473))” value ([1]; Example 15, Etoposide 10 μM, 1 h, compared with control group)?
Answer: activated the level of the DNA-PKcs signaling pathway in H1299 and A549 cells

Question: And the “Level of the DNA-PKcs signaling pathway (p-DNA-PKcs (S2056), p-AKT (S473), p-P53 (S15))” value ([1]; compared with control group)?
Answer: activated the level of the DNA-PKcs signaling pathway

Question: And the tumor suppression rate (A549-shP53 tumor)?
Answer: 39.3%

Question: And the “Activity of tumor cells” value ([3]; Etoposide 0, 0.1, 1, 10 μM, 12 hours treatment, 72 hours further culture)?
Answer: could significantly inhibit the activity of tumor cells

Question: What about the “Tumor cell proliferation (PCNA) and protein level of DNA-PKcs in tumor tissue” value [5] of the same molecule?
Answer: can attenuate tumor cell proliferation to a certain extent and reduce the protein level of DNA-PKcs

Question: And the tumor suppression rate (A549-NC tumor)?
Answer: 34.0%

Question: What about the tumor suppression rate (H1299-P53 tumor) of the same molecule?
Answer: 30.0%

Question: What about the “Colony-forming ability of tumor cells” value [6] of the same molecule?
Answer: could significantly inhibit the colony-forming ability of tumor cells

Question: What about the “Survival time of mice” value [7] of the same molecule?
Answer: could prolong the survival time of the mice to some extent

Question: And the “Activity of tumor cells” value (A375 cells)?
Answer: could significantly inhibit the activity of tumor cells

Question: What about the “mRNA levels of pro-apoptotic molecules BAX, NOXA, PUMA, P21” value [8] of the same molecule?
Answer: could significantly up-regulate the above pro-apoptotic molecules

Question: What about the “Tumor cell proliferation (PCNA) and protein level of DNA-PKcs in tumor tissue” value [9] of the same molecule?
Answer: could reduce the proliferation of tumor cells and reduce the protein level of DNA-PKcs

B1: PEG-Endostatin: natural human endostatin modified with 20 kDa mPEG-ALD at the N-terminal α-amino group (conjugate)
chain: MHSHRDFQPVLHLVALNSPLSGGMRGIRGADFQCFQQARAVGLAGTFRAFLSSRLQDLYSIVRRADRAAVPIVNLKDELLFPSWEALFSGSEGPLKPGARIFSFDGKDVLRHPTWPQKSVWHGSDPNGRRLTESYCETWRTEAPSATGQASSLLGGRLLGQSAASCHHAYIVLCIENSFMTASK
Question: B1 was tested. Which “Activation of the DNA-PKcs signaling pathway by Etoposide (p-DNA-PKcs (S2056), p-AKT (S473))” value ([1]; Example 15, 1 h) did it give?
Answer: inhibited the activation of the DNA-PKcs signaling pathway by Etoposide

B2: ZBP-Endostatin: endostatin variant obtained by adding 9 additional amino acids (MGGSHHHHH) to the N-terminus of natural human endostatin, SEQ ID NO: 3 (protein)
chain: MGGSHHHHHHSHRDFQPVLHLVALNSPLSGGMRGIRGADFQCFQQARAVGLAGTFRAFLSSRLQDLYSIVRRADRAAVPIVNLKDELLFPSWEALFSGSEGPLKPGARIFSFDGKDVLRHPTWPQKSVWHGSDPNGRRLTESYCETWRTEAPSATGQASSLLGGRLLGQSAASCHHAYIVLCIENSFMTASK
modifications: The amino acid sequence of ZBP-Endostatin
Question: B2 was tested. Which “Activation of the DNA-PKcs signaling pathway by Etoposide (p-DNA-PKcs (S2056), p-AKT (S473))” value ([1]; Example 15, 1 h) did it give?
Answer: inhibited the activation of the DNA-PKcs signaling pathway by Etoposide
